A word on the mortality: it is the percentage killed.

These results are taken from patent US4176189A, “Insecticidal and acaricidal hydantoin N-methylol esters” (Sumitomo Chemical Company, Limited, priority 1977, dated 1979).

Like-named read-outs stand apart in the source and are kept apart here.

Assay type in all cases: in vivo
Assay [1] deals with northern house mosquito female adults (Culex pipiens pallens). Nature of the assay: Oil spray in (70 cm)^3 glass chamber, knock down of mosquitoes at 10 minutes (Experimental Example 3). Conditions: oil sprays of Preparation example 1 (0.2 part in 100), 0.7 ml, 10 minutes after spraying, read-out: KD%. From the text: Ten northern house mosquito female adults (Culex pipiens pallens) were liberated in a (70 cm)^3 glass chamber.

Assay [2] has as its system housefly female adults (Musca domestica). In words: Housefly female adults on treated filter paper in polyethylene cup, mortality after 48 hours (Experimental Example 1). As for the experimental part:
Ten percent emulsifiable concentrates were prepared as in the Preparation example 3.
At the bottom of a polyethylene cup of 5.5 cm in diameter was placed a filter paper of the same size. 0.75 Ml of a 200-fold aqueous dilute solution of each emulsifiable concentrate (corresponding to 500 ppm) was dropped on the filter paper, and 30 mg of sucrose as a food was uniformly placed. Ten housefly female adults (Musca domestica) were liberated in the cup which was then covered with a lid. After 48 hours, the dead and alive were examined to obtain mortality (4 replications).

Assay [3] deals with Carmine mite (Tetranychus cinnabarinus). Nature of the assay: Carmine mite on potted kidney bean, damage after 10 days (Experimental Example 12). The following applies: 200-fold aqueous dilution of emulsifiable concentrate of Preparation example 3, 10 ml/pot. As for the experimental part: Carmine mite female adults (Tetranychus cinnabarinus) were made parasitic on leaves of the potted kidney bean (primordial leaf stage) which had elapsed 9 days after sowing, at a rate of 10-15/leaf, and bred at 27° C. for a week in a constant temperature room. […] At this time, a 200-fold aqueous dilute solution of each of the emulsifiable concentrates formulated from the present compounds (2), (6), (8), (9) and (13) according to Preparation example 3 was sprayed at a rate of 10 ml/pot by means of a turn table.

Assay [4] has as its system northern house mosquito female adults (Culex pipiens pallens). Nature of the assay: Oil spray in (70 cm)^3 glass chamber, northern house mosquito female adults, KT50 and mortality (Experimental Example 2). Conditions: for mortality at 0.1 %: Culex pipiens. As for the experimental part: (§1) 0.1 Part of each of the present compounds was dissolved in kerosene and made up to 100 parts with kerosene. Thus, the oil spray of each compound was obtained. Ten northern house mosquito female adults (Culex pipiens pallens) and 10 housefly adults (Musca domestica) were liberated in a (70 cm)^3 glass chamber. 0.7 ml of the oil spray was applied and the number of knocked down insects was counted with the lapse of time. The value of KT50 was obtained from the mean knock-down ratio of three replications according to Finney's graphic method. After 10 minutes, the knocked down insects were collected and transferred to a recovery container and fed with a 5% sugar solution. After 24 hours, the dead and alive were examined.

In assay [5] the test system is housefly adults (Musca domestica). Nature of the assay: Oil spray in (70 cm)^3 glass chamber, housefly adults, KT50 and mortality (Experimental Example 2). Conditions: for mortality at 0.1 %: Musca domestica. As for the experimental part: as §1
Assay [6] deals with adult German cockroaches (Blattella germanica). Nature of the assay: Flushing out of German cockroaches from shelter (Experimental Example 8). Conditions: 0.7 ml of 0.1% oil spray. As for the experimental part:
Ten adult German cockroaches (Blattella germanica) were liberated in a plywood-made trigonal prism like shelter with diet and water. The shelter containing cockroaches was made stand opening upward in a glass chamber (70 cm)^3, and 0.7 ml of 0.1% oil spray of each compound was applied to the chamber. The number of flushed out insects was counted with the lapse of time.

Setting [7] is: northern house mosquito female adult, 0.1% oil spray, 0.7 ml.
[8] abbreviates: housefly adult, 0.1% oil spray, 0.7 ml.
Where [9] appears, read: 200-fold aqueous dilution of emulsifiable concentrate (500 ppm), 48 hours, housefly female adults, read-out: Mortality.

Consider `C=CCN1CC(=O)N(COC(=O)C2C(C=C(Cl)Cl)C2(C)C)C1=O` (centres unmarked) [Present compound (2), 1-Allyl-3-hydantoinylmethyl 2,2-dimethyl-3-(2,2-dichlorovinyl)-cyclopropanecarboxylate], for which, in assay [1], the pest or weed control at 0.2 % worked out at 100%. The molecule also registered a mortality at 500 µg/mL in assay [2] (48 h) of 100%. Further, the “damage of kidney bean by the mites” value in assay [3] is reported as “hardly any damage was observed”.

On to `C#CCN1CC(=O)N(COC(=O)[C@@H]2[C@@H](C=C3CCCC3)C2(C)C)C1=O` (relative stereo) [Present compound (8), 1-Propargyl-3-hydantoinylmethyl 2,2-dimethyl-3-cyclopentylidenemethylcyclopropanecarboxylate], for which the values for the mortality at 0.1 % in assay [4] (24 h) and in assay [5] (24 h) were 95% and 25%, respectively. In addition, the KT50 in assay [4] (setting [7]) worked out at 75 s; in assay [5] (setting [8]), 150 s. The same molecule displayed a mortality at 500 µg/mL in assay [2] (48 h) of 100%. Besides, in assay [3], the “damage of kidney bean by the mites” value is “hardly any damage was observed”.

Consider `C#CCN1CC(=O)N(COC(=O)C2C(C)(C)C2(C)C)C1=O` [Present compound (9), 1-Propargyl-3-hydantoinylmethyl 2,2,3,3-tetramethylcyclopropanecarboxylate], for which the mortality at 0.1 % turned out to be 95% in assay [4] (northern house mosquito female adult, 0.1% oil spray, 0.7 ml, after 24 hours, read-out: Mortality) and 20% in assay [5] (housefly adult, 0.1% oil spray, 0.7 ml, after 24 hours, read-out: Mortality). In addition, the figures for the KT50 in assay [4] (setting [7]) and in assay [5] (setting [8]) were 35 s and 150 s, respectively. The mortality at 500 µg/mL in assay [2] (setting [9]) came out at 100%. The Flushing out in assay [6] (38") is on record as 15%; in assay [6] (75") it was 55%; in assay [6] (150"), 60%; in assay [6] (300"), 70%; in assay [6] (600"), 80%. For the same molecule, in assay [3], the “damage of kidney bean by the mites” value is “hardly any damage was observed”.

As for `C=CCN1C(=O)CN(COC(=O)C2C(C=C(Cl)Cl)C2(C)C)C1=O` (centres unmarked) [Present compound (5), 3-Allyl-1-hydantoinylmethyl 2,2-dimethyl-3-(2,2-dichlorovinyl)-cyclopropanecarboxylate], in assay [1], the pest or weed control at 0.2 % came to 100%. Further, the mortality at 500 µg/mL in assay [2] (48 h) came out at 100%.

Regarding `C#CCN1CC(=O)N(COC(=O)C(c2ccc(Cl)cc2)C(C)C)C1=O` (stereo not drawn) [Present compound (13), 1-Propargyl-3-hydantoinylmethyl α-(4-chlorophenyl)isovalerate], the pest or weed control at 0.2 % in assay [1] came out at 90%. In assay [2] (setting [9]), the mortality at 500 µg/mL is 100%. In addition, the “damage of kidney bean by the mites” value in assay [3] was “hardly any damage was observed”.

In the case of `C=CCN1CC(=O)N(COC(=O)C(c2ccc(Br)cc2)C(C)C)C1=O` (stereo not drawn) [Present compound (18), 1-Allyl-3-hydantoinylmethyl α-(4-bromophenyl)isovalerate], the pest or weed control at 0.2 % in assay [1] is 90%. The mortality at 500 µg/mL in assay [2] (setting [9]) amounted to 100%.

Take `C#CCN1CC(=O)N(COC(=O)[C@@H]2[C@@H](C=C(F)F)C2(C)C)C1=O` [Present compound (6)]: the mortality at 0.1 % in assay [4] (24 h) was 100%; in assay [5] (24 h) it was 70%. In addition, the KT50 in assay [4] (setting [7]) worked out at 19 s; in assay [5] (setting [8]) it was 46 s. In addition, in assay [2] (48 h), the mortality at 500 µg/mL is 100%. Further, the Flushing out in assay [6] (38") amounted to 47%; in assay [6] (75"), 74%; in assay [6] (150"), 79%; in assay [6] (300") it was 79%; in assay [6] (600") it was 100%. Also, the “damage of kidney bean by the mites” value in assay [3] was “hardly any damage was observed”.
